{"source": "ChEMBL document CHEMBL1201862", "about": "“PubChem BioAssay data set” (2004)", "key": {"[1]": {"molecular_target": "NAD-dependent protein deacylase sirtuin-5, mitochondrial (Homo sapiens, UniProt Q9NXA8)", "assay": "SIRT5 desuccinylase inhibitors, dose response, biochemical, fluorescence imaging, cherry-pick, set 5 (AID 720591);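 note: desuccinylation of succinyl peptide AMC substrate read as fluorescence after trypsin release; potency of inhibitors that lower fluorescence and may act on trypsin instead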"}, "Caspase-8": {"molecular_target": "Caspase-8 (Homo sapiens, UniProt Q14790)", "sequence (Q14790 217-374 limits assumed)": "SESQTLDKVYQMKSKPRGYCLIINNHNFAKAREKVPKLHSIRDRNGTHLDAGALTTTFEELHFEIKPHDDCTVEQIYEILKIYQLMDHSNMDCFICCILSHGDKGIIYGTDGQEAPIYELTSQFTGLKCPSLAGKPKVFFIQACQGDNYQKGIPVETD", "sequence (Q14790 385-479 limits assumed)": "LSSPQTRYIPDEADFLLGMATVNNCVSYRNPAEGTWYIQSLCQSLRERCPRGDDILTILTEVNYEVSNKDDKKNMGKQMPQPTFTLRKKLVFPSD", "assay": "caspase-8 inhibition counter-screen, dose response, selectivity assay for caspase-6 inhibitor project, biochemical, Z-IETD-R110 fluorescence, cherry-picked samples (AID 743294)"}, "Caspase-6": {"molecular_target": "T1, Caspase-6 (Homo sapiens, UniProt P55212)", "T1 sequence (P55212 whole entry)": "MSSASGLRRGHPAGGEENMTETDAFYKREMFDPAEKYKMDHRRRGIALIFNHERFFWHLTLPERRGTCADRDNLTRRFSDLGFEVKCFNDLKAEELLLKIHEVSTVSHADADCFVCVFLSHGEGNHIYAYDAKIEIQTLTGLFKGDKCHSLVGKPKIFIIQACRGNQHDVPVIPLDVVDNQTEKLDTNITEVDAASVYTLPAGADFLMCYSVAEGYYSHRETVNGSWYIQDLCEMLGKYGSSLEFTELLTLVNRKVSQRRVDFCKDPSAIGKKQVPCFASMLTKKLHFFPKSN", "assay": "human caspase-6 inhibitors, dose response, biochemical, VEID-R110 fluorescence, cherry-pick (AID 720632)"}, "Large T antigen": {"molecular_target": "Large T antigen (Simian virus 40, UniProt P03070)", "sequence (P03070 whole entry)": "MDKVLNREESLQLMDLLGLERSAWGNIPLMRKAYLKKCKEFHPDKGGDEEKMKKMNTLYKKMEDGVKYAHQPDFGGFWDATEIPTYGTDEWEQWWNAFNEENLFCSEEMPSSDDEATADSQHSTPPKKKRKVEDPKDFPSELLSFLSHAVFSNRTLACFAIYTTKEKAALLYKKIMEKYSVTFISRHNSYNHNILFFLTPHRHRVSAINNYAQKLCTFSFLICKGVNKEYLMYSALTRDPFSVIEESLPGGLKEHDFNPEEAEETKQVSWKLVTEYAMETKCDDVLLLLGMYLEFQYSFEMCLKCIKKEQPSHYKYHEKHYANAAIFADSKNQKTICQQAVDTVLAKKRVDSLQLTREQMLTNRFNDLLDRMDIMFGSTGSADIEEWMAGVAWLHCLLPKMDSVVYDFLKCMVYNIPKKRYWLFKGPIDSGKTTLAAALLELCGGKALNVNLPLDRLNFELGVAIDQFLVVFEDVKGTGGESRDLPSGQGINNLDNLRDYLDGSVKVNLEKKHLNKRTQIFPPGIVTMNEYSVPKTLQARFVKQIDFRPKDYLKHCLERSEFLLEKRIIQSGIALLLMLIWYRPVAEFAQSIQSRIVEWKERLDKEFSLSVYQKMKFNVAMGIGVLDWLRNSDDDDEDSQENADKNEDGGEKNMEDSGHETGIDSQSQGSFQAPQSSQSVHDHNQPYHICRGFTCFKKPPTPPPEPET", "type": "functional, Betapolyomavirus macacae"}, "[2]": {"molecular_target": "T2, Small ubiquitin-related modifier 1 (Homo sapiens, UniProt P63165)", "T2 sequence (P63165 whole entry)": "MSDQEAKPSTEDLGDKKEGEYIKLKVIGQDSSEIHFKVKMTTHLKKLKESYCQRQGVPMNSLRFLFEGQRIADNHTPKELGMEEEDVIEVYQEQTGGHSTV", "assay": "inhibitors of SUMO1 peptide binding, dose response, biochemical, fluorescence polarization, uHTS hits (AID 624382)", "type": "functional", "settings": "read-out: IC50_Mean"}, "Caspase-9": {"molecular_target": "Caspase-9 (Homo sapiens, UniProt P55211)", "assay": "caspase-9 enzyme inhibition, dose response, selectivity assay for caspase-6 inhibitor project, biochemical, fluorescence, plate reader, cherry-picked samples (AID 743293)"}, "[3]": {"molecular_target": "T2, Small ubiquitin-related modifier 1", "assay": "inhibitors of SUMO1 partner interactions, dose response, biochemical, FRET (AID 624383)", "type": "functional", "settings": "read-out: IC50_Mean"}, "Troponin, cardiac muscle": {"molecular_target": "Troponin, cardiac muscle (Homo sapiens, UniProt P19429+P45379+P63316)", "assay": "inhibitors of cardiac thin filament calcium sensitivity, dose response, biochemical, fluorescence, cardiac regulated thin filaments, triplicate IC50 (AID 504742)", "type": "protein-complex assay"}, "Genome polyprotein": {"molecular_target": "Genome polyprotein (Hepatitis C virus, UniProt Q2Q167)", "sequence (Q2Q167 whole entry)": "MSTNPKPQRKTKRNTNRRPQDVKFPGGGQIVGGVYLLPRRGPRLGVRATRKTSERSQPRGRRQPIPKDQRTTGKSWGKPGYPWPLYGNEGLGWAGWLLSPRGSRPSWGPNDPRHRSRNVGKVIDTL", "assay": "HCV core protein dimerization inhibitors, dose response, biochemical, TR-FRET (AID 2159);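 note: blocks dimerization of HCV core protein measured by TR-FRET between tagged core106 pairs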", "parameters": "species or system Hepacivirus hominis"}, "[4]": {"molecular_target": "T3, Ubiquitin-conjugating enzyme E2 N (Homo sapiens, UniProt P61088)", "T3 sequence (P61088 whole entry)": "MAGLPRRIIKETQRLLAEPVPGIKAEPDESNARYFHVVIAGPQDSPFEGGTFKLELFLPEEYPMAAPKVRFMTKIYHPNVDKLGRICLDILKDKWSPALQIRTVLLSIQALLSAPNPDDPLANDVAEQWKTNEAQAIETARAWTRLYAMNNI", "type": "functional"}, "[5]": {"molecular_target": "DNA damage-inducible transcript 3 protein (Mus musculus, UniProt P35639)", "sequence (P35639 whole entry)": "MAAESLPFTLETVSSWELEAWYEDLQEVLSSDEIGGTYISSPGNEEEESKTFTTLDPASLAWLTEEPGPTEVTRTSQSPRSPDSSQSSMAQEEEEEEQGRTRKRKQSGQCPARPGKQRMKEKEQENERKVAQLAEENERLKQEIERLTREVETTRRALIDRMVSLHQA", "type": "functional, Cricetulus griseus"}, "Leucine aminopeptidase": {"molecular_target": "T4, Leucine aminopeptidase (Plasmodium falciparum 3D7, UniProt Q8IL11)", "T4 sequence (Q8IL11 whole entry)": "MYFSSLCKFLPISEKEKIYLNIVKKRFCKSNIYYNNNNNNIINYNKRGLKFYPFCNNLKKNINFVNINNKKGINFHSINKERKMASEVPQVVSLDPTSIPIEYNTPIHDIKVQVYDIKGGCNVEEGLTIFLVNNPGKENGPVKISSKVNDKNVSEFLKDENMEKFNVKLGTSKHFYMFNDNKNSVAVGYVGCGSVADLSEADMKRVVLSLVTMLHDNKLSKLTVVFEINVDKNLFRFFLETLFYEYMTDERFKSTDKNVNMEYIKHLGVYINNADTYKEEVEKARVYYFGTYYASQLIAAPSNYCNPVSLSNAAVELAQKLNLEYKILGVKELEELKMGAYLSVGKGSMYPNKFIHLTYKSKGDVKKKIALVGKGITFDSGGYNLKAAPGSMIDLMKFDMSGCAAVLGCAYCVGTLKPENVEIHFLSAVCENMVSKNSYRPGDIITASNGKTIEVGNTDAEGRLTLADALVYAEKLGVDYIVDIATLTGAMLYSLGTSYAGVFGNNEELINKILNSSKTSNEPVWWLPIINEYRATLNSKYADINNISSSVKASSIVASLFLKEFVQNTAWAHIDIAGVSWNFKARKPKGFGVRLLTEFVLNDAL", "assay": "P. falciparum M17LAP inhibitors, primary screen, biochemical, fluorogenic H-Leu-NHMec substrate, 1536-well (AID 1619)", "type": "functional"}, "[6]": {"molecular_target": "DNA dC->dU-editing enzyme APOBEC-3G (Homo sapiens, UniProt Q9HC16)", "sequence (Q9HC16 whole entry)": "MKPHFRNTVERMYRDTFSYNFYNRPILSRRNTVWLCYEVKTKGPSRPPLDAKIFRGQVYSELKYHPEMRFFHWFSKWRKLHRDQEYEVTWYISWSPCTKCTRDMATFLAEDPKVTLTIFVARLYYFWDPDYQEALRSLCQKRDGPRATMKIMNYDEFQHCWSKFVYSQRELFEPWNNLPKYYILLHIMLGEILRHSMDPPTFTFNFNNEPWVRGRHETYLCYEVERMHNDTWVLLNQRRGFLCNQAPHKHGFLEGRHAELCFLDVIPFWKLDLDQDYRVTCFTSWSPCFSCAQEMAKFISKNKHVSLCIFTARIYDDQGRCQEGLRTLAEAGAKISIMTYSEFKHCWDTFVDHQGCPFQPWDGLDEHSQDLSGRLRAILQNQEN", "assay": "Dose Response confirmation of small molecule APOBEC3G DNA Deaminase Inhibitors via a fluorescence-based single-stranded DNA deaminase assay. [Related pubchem assays (depositor defined):AID493012, AID493028]", "type": "functional"}, "[7]": {"molecular_target": "DNA dC->dU-editing enzyme APOBEC-3A (Homo sapiens, UniProt P31941)", "assay": "APOBEC3A DNA deaminase inhibitors, dose response, biochemical (AID 504722)", "type": "functional"}, "[8]": {"molecular_target": "T5, Voltage-gated N-type calcium channel alpha-1B subunit/Amyloid beta A4 precursor protein-binding family A member 1 (Homo sapiens, UniProt Q00975+Q02410)", "T5 sequence (Q00975 whole entry)": "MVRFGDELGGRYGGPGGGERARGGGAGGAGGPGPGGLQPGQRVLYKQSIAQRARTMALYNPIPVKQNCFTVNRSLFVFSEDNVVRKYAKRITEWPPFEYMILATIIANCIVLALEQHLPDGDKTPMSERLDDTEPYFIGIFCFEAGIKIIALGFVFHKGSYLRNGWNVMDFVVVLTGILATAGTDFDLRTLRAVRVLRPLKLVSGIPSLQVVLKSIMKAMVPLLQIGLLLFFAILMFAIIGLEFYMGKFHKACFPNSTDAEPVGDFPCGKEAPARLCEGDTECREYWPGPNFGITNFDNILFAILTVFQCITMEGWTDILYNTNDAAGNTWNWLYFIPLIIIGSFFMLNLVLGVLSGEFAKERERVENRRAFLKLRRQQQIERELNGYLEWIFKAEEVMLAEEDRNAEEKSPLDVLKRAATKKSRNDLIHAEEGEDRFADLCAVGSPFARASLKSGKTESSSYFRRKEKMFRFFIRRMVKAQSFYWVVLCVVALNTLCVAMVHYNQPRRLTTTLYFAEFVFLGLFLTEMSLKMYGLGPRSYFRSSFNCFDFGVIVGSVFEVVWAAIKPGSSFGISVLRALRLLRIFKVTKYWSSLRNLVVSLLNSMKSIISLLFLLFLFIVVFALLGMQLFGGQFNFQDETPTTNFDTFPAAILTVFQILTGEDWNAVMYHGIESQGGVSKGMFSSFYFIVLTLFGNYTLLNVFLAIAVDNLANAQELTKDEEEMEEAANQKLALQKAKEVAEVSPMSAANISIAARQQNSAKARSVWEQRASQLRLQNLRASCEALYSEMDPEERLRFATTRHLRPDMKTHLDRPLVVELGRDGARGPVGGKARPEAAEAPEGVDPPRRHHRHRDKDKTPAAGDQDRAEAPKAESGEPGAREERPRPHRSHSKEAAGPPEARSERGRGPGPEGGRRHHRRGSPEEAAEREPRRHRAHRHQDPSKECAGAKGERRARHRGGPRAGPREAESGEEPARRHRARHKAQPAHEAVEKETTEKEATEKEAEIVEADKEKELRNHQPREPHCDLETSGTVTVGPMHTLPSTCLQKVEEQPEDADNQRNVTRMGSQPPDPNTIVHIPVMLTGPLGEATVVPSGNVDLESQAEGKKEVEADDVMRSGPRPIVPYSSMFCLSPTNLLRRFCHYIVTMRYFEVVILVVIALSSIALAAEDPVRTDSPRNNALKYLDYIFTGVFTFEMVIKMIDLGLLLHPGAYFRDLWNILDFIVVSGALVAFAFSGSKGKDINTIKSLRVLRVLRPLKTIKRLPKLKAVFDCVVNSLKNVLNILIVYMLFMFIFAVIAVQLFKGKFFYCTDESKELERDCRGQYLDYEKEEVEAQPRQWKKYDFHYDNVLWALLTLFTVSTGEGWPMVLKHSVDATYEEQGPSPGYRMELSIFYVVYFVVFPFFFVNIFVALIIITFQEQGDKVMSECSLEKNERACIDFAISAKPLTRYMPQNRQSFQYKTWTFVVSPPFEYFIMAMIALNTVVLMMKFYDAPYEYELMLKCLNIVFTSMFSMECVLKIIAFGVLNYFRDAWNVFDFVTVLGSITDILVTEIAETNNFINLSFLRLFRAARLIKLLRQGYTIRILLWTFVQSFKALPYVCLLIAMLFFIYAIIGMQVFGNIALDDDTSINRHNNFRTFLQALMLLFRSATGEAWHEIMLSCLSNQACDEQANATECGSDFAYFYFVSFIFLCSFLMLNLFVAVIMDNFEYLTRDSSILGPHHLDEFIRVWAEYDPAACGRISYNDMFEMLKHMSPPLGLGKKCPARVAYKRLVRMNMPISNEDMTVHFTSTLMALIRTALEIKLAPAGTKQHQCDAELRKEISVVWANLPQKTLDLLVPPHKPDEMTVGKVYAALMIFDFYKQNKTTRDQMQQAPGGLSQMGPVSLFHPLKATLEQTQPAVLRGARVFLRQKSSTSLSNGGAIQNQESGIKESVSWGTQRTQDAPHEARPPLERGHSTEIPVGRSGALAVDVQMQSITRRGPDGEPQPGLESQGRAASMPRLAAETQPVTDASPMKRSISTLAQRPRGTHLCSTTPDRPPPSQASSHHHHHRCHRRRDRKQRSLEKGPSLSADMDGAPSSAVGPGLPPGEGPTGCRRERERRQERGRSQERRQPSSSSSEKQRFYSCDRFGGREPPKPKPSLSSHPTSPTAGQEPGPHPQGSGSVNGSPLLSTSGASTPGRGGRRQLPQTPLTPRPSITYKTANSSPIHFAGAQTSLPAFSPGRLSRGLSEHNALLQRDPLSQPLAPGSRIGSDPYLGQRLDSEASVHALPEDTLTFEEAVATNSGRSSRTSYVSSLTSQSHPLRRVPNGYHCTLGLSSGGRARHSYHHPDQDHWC", "T5 sequence (Q02410 whole entry)": "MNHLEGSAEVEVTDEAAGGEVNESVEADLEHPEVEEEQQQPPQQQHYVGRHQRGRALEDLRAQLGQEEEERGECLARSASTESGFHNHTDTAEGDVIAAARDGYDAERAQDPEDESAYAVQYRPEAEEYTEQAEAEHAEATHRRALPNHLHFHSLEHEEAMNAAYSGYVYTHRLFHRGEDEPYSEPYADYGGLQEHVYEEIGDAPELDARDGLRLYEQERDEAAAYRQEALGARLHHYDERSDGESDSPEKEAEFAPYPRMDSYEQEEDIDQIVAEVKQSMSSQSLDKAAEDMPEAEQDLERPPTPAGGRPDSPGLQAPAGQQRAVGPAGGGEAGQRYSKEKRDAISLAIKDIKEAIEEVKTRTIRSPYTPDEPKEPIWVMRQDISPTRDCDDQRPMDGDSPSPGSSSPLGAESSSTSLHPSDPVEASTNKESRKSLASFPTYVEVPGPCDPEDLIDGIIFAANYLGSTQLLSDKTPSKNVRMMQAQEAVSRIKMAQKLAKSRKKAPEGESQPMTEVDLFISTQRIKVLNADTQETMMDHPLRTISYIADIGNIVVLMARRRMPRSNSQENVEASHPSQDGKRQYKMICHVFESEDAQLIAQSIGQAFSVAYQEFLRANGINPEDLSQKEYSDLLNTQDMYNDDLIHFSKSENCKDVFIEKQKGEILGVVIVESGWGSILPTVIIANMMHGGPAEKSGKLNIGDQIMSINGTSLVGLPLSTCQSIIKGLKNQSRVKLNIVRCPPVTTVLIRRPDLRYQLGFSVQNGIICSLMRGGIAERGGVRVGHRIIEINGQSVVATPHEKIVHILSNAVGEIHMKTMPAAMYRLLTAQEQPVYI", "type": "protein assay"}, "[9]": {"molecular_target": "T5, Voltage-gated N-type calcium channel alpha-1B subunit/Amyloid beta A4 precursor protein-binding family A member 1", "type": "protein assay", "remark": "listed apart in the source"}}, "note": "Active and inactive are the calls of the source."}
{"smiles": "COCCN(C(=O)COC(=O)c1cc2c(s1)CCC2)c1c(N)n(Cc2ccccc2)c(=O)[nH]c1=O", "values": [{"measurement": "AC50", "setting": "[1]", "result": "> 30 µM (inactive)"}, {"measurement": "AC50", "setting": "Caspase-8", "result": "> 70 µM (inactive)"}, {"measurement": "AC50", "setting": "Caspase-6", "result": "0.198 µM (active)"}, {"measurement": "IC50", "setting": "Large T antigen", "result": "57.7 µM (active)"}, {"measurement": "IC50", "setting": "[2]", "result": "> 66.6 µM (inactive)"}, {"measurement": "AC50", "setting": "Caspase-9", "result": "12.1 µM (active)"}, {"measurement": "IC50", "setting": "[3]", "result": "1.42 µM (active)"}, {"measurement": "IC50", "setting": "Troponin, cardiac muscle", "result": "19.7 µM (inactive)"}, {"measurement": "IC50", "setting": "Genome polyprotein", "result": "48.6 µM (not active)"}]}
{"smiles": "CCOC(=O)c1cc(-c2ccccc2)nc2c1c(C)nn2-c1ccccn1", "values": [{"measurement": "IC50", "setting": "[4]", "result": "> 20 µM (inactive)"}, {"measurement": "Absolute IC50 (CHOP)", "setting": "[5]", "result": 10, "unit": "µM"}]}
{"smiles": "Sc1n[nH]c(C2CCCCC2)n1", "values": [{"measurement": "IC50", "setting": "Leucine aminopeptidase", "result": "13.8 µM (active)"}, {"measurement": "IC50", "setting": "[6]", "result": "8.98 µM (active)"}, {"measurement": "IC50", "setting": "[7]", "result": "> 100 µM (inactive)"}]}
{"smiles": "COc1ccc(NC(=O)c2cc3c(=O)n(C)c4ccccc4c3s2)cc1OC", "values": [{"measurement": "IC50", "setting": "[8]", "result": "> 50 µM (inactive)"}, {"measurement": "IC50", "setting": "[9]", "result": "8 µM (active)"}]}
